From patent US20250012802A1, “SYSTEMS AND METHODS FOR PREDICTING RESPONSE TO ORAL MINOXIDIL FOR THE TREATMENT OF ANDROGENETIC ALOPECIA” (Follea International, priority 2023, published 2025)
Where “and” joins values, the source holds several entries; their conditions need not be identical. Identical values can stand only once.

Test system: androgenetic alopecia
Experiment: clinical response to oral minoxidil for androgenetic alopecia
Type: in vivo, human
Set-up: Response: scale not given here
Details: for subjects who responded to oral minoxidil: 5 mg men and 1.25 mg women
Excerpt: Clinical trials with minoxidil for the treatment of androgenetic alopecia have shown statistically significant results for maintenance and growth of hair. […] As described herein, the assessment of hair re-growth is based on one or more of the following parameters: patient self assessment, physician assessment using a standardized scale, global photography assessment, hair diameter measurement, average hair length measurement, average hair diameter measurement, and hair weight measurements. The current inventions provide a method of using biochemical variations in minoxidil sulfotransferase activity as a drug response marker for oral and/or topical minoxidil treatment of androgenetic alopecia. Based on the minoxidil sulfotransferase activity level, the method disclosed herein allows a physician or the patient to select the appropriate treatment and dosage thereof for the treatment of androgenetic alopecia.
In one embodiment, the test is conducted by placing a hair follicle in an assay. The hair follicle may be collected prior to minoxidil therapy, or after start of minoxidil therapy. The follicle is placed in a solution containing minoxidil. The assay is then conducted as described above, and is examined to determine whether there is a SULT1A1 response. The results are then used as a predictor for patients who will respond well to minoxidil, and who will respond better to oral minoxidil versus topical application of minoxidil. […] The first column is optical density resulting from the colorimetric testing. The second column indicates response.
A total of 123 subjects recruited. Overall among subjects with OD<0.37 85% responded to oral minoxidil (5 mg men and 1.25 mg women). Overall among subjects with OD>0.37 43% responded to oral minoxidil (5 mg men and 1.25 mg women). This was statistically significant p=0.0088 (Fischer Exact Test). In this cohort, oral minoxidil only worked on 42% of women and 73% of men.

**Q.** With `Nc1cc(N2CCCCC2)nc(N)[n+]1[O-]` [minoxidil] as the molecule, how does the “share of cohort on whom oral minoxidil worked” value (men) read?
**A.** Its value is 73%.

**Q.** What about the Response (response of the individual patient with the OD of the same line, 0/1 not defined in the patent) of the same molecule?
**A.** Its Response is 1 (15×) and 0 (11×).

**Q.** What about the “subjects who responded to oral minoxidil” value (subjects with OD<0.37) of the same molecule?
**A.** Its value is 85%.

**Q.** What about the “subjects who responded to oral minoxidil” value (subjects with OD>0.37) of the same molecule?
**A.** Its value is 43%.

**Q.** And the “share of cohort on whom oral minoxidil worked” value (women)?
**A.** Its value is 42%.
